Experimental data taken from publication PMC5218480 (PLoS ONE, 2017).

Tested on: MV-4-11 cells
Test: Gene expression microarray analysis (Affymetrix PrimeView) and GSEA
Type: cell-based, human
Parameters: RFU PODN (11730768_x_at) / Fold change /veh PODN (11730768_x_at) / RFU LINC00158 (11744669_a_at) / Fold change /veh LINC00158 (11744669_a_at) / RFU DUSP10 (11751237_a_at) / Fold change /veh DUSP10 (11751237_a_at) / RFU ID3 (11757404_x_at) / Fold change /veh ID3 (11757404_x_at) / RFU PLEKHG5 (11737974_s_at) / Fold change /veh PLEKHG5 (11737974_s_at) / RFU LRRC4B (11730491_at) / Fold change /veh LRRC4B (11730491_at) / RFU GIMAP4 (11747438_a_at) / Fold change /veh GIMAP4 (11747438_a_at) / RFU KRT8 (11758183_x_at) / Fold change /veh KRT8 (11758183_x_at) / RFU CNN1 (11734310_a_at) / Fold change /veh CNN1 (11734310_a_at) / RFU VPS37D (11726825_at) / Fold change /veh VPS37D (11726825_at) / RFU C10orf10 (11716522_x_at) / Fold change /veh C10orf10 (11716522_x_at) / RFU KIR2DL2 /// KIR2DL4 /// KIR2DL5A /// KIR2DL5B /// KIR2DS1 /// KIR2DS2 /// KIR2DS3 /// KIR2DS4 /// KIR3DL3 /// KIR3DL3 /// KIR3DS1 (11738374_at) / Fold change /veh KIR2DL2 /// KIR2DL4 /// KIR2DL5A /// KIR2DL5B /// KIR2DS1 /// KIR2DS2 /// KIR2DS3 /// KIR2DS4 /// KIR3DL3 /// KIR3DL3 /// KIR3DS1 (11738374_at) / RFU C1QL1 (11718748_at) / Fold change /veh C1QL1 (11718748_at) / RFU TMPRSS4 (11747572_a_at) / Fold change /veh TMPRSS4 (11747572_a_at) / RFU HAMP (11756126_x_at) / Fold change /veh HAMP (11756126_x_at) / RFU RNFT2 (11725882_a_at) / Fold change /veh RNFT2 (11725882_a_at) / RFU NR4A2 (11747474_a_at) / Fold change /veh NR4A2 (11747474_a_at) / RFU ABCC12 (11746883_a_at) / Fold change /veh ABCC12 (11746883_a_at) / RFU TMEM136 (11760407_x_at) / Fold change /veh TMEM136 (11760407_x_at) / RFU CLDN22 /// WWC2 (11732394_at) / Fold change /veh CLDN22 /// WWC2 (11732394_at) / RFU HLA-DPB1 (11760878_x_at) / Fold change /veh HLA-DPB1 (11760878_x_at) / RFU SPINT1 (11716480_a_at) / Fold change /veh SPINT1 (11716480_a_at) / RFU GAP43 (11754022_s_at) / Fold change /veh GAP43 (11754022_s_at) / RFU A4GNT (11735810_at) / Fold change /veh A4GNT (11735810_at) / RFU PRB3 (11715151_x_at) / Fold change /veh PRB3 (11715151_x_at) / RFU TUBB4B (11761932_at) / Fold change /veh TUBB4B (11761932_at) / RFU CAPN14 (11732068_a_at) / Fold change /veh CAPN14 (11732068_a_at) / RFU TMCC2 (11721928_a_at) / Fold change /veh TMCC2 (11721928_a_at) / RFU IRGQ (11745062_a_at) / Fold change /veh IRGQ (11745062_a_at) / RFU FAM174B (11720279_a_at) / Fold change /veh FAM174B (11720279_a_at) / RFU TMPRSS4 (11748680_a_at) / Fold change /veh TMPRSS4 (11748680_a_at) / RFU FAM212B (11763350_a_at) / Fold change /veh FAM212B (11763350_a_at) / RFU PLEKHG5 (11743358_a_at) / Fold change /veh PLEKHG5 (11743358_a_at) / RFU ZSCAN30 (11745921_a_at) / Fold change /veh ZSCAN30 (11745921_a_at) / RFU CMKLR1 (11741424_a_at) / Fold change /veh CMKLR1 (11741424_a_at) / RFU LOC101060620 /// MAPK8IP1 (11723275_at) / Fold change /veh LOC101060620 /// MAPK8IP1 (11723275_at) / RFU SPTSSB (11747773_x_at) / Fold change /veh SPTSSB (11747773_x_at) / RFU PRSS12 (11739890_at) / Fold change /veh PRSS12 (11739890_at) / RFU BIN1 (11741810_x_at) / Fold change /veh BIN1 (11741810_x_at) / RFU WNT11 (11732464_a_at) / Fold change /veh WNT11 (11732464_a_at) / RFU C10orf10 (11716521_a_at) / Fold change /veh C10orf10 (11716521_a_at) / RFU C5orf56 (11738089_at) / Fold change /veh C5orf56 (11738089_at) / RFU CYB561 (11721691_x_at) / Fold change /veh CYB561 (11721691_x_at) / RFU ANKRD19P (11752326_a_at) / Fold change /veh ANKRD19P (11752326_a_at) / RFU OR2T12 /// OR2T33 /// OR2T8 (11738714_s_at) / Fold change /veh OR2T12 /// OR2T33 /// OR2T8 (11738714_s_at) / RFU VCAN (11748164_a_at) / Fold change /veh VCAN (11748164_a_at) / RFU JSRP1 (11732532_at) / Fold change /veh JSRP1 (11732532_at) / RFU KRTAP10-11 (11738290_x_at) / Fold change /veh KRTAP10-11 (11738290_x_at) / RFU MYO3A (11730013_a_at) / Fold change /veh MYO3A (11730013_a_at) / RFU EBF3 (11725865_a_at) / Fold change /veh EBF3 (11725865_a_at) / RFU CAMK2N1 (11719241_x_at) / Fold change /veh CAMK2N1 (11719241_x_at) / RFU C5orf56 (11738088_a_at) / Fold change /veh C5orf56 (11738088_a_at) / RFU OLFML3 (11715873_a_at) / Fold change /veh OLFML3 (11715873_a_at) / RFU LOC100653217 /// NTM (11731650_a_at) / Fold change /veh LOC100653217 /// NTM (11731650_a_at) / RFU MAPK11 (11762145_a_at) / Fold change /veh MAPK11 (11762145_a_at) / RFU FIZ1 (11724087_x_at) / Fold change /veh FIZ1 (11724087_x_at) / RFU OASL (11726364_x_at) / Fold change /veh OASL (11726364_x_at) / RFU SOX15 (11748057_x_at) / Fold change /veh SOX15 (11748057_x_at) / RFU CD79A (11719716_a_at) / Fold change /veh CD79A (11719716_a_at) / RFU HIST1H1D (11736915_at) / Fold change /veh HIST1H1D (11736915_at) / RFU CASKIN2 (11723855_a_at) / Fold change /veh CASKIN2 (11723855_a_at) / RFU LOC730098 (11760151_x_at) / Fold change /veh LOC730098 (11760151_x_at) / RFU OR4N2 (11742367_at) / Fold change /veh OR4N2 (11742367_at) / RFU PRRT2 (11749266_a_at) / Fold change /veh PRRT2 (11749266_a_at) / RFU SNX32 (11753110_a_at) / Fold change /veh SNX32 (11753110_a_at) / RFU CDHR5 (11726645_a_at) / Fold change /veh CDHR5 (11726645_a_at) / RFU RCAN1 (11760418_a_at) / Fold change /veh RCAN1 (11760418_a_at) / RFU FAM167A (11723789_a_at) / Fold change /veh FAM167A (11723789_a_at) / RFU FAM26E (11764081_at) / Fold change /veh FAM26E (11764081_at) / RFU ISYNA1 (11749810_s_at) / Fold change /veh ISYNA1 (11749810_s_at) / RFU ACY1 (11761880_at) / Fold change /veh ACY1 (11761880_at) / RFU 11764098_at / Fold change /veh 11764098_at / RFU SAMD14 (11745864_x_at) / Fold change /veh SAMD14 (11745864_x_at) / RFU NPB (11741838_a_at) / Fold change /veh NPB (11741838_a_at) / RFU TMPRSS6 (11731388_a_at) / Fold change /veh TMPRSS6 (11731388_a_at) / RFU KRTAP10-2 (11738614_at) / Fold change /veh KRTAP10-2 (11738614_at) / RFU ARHGAP8 /// PRR5-ARHGAP8 (11727945_x_at) / Fold change /veh ARHGAP8 /// PRR5-ARHGAP8 (11727945_x_at) / RFU KRTAP5-7 /// NADSYN1 (11734609_at) / Fold change /veh KRTAP5-7 /// NADSYN1 (11734609_at) / RFU RASL12 (11751679_a_at) / Fold change /veh RASL12 (11751679_a_at) / RFU CDKN2B (11736163_a_at) / Fold change /veh CDKN2B (11736163_a_at) / RFU PRF1 (11729649_at) / Fold change /veh PRF1 (11729649_at) / RFU, ZNF638 /// ZNF638-IT1 / Fold change vs veh, ZNF638 /// ZNF638-IT1 / RFU, PANK3 / Fold change vs veh, PANK3 / RFU, SH3YL1 / Fold change vs veh, SH3YL1 / RFU, ZEB2 / Fold change vs veh, ZEB2 / RFU, NRIP1 / Fold change vs veh, NRIP1 / RFU, PTTG1IP / Fold change vs veh, PTTG1IP / RFU, CAPN2 / Fold change vs veh, CAPN2 / RFU, MED14 / Fold change vs veh, MED14 / RFU, SNORA58 / Fold change vs veh, SNORA58 / RFU, C1orf63 / Fold change vs veh, C1orf63 / RFU, LRRFIP1 / Fold change vs veh, LRRFIP1 / RFU, NDUFAF7 / Fold change vs veh, NDUFAF7 / RFU, SLC12A2 / Fold change vs veh, SLC12A2 / RFU, IBTK / Fold change vs veh, IBTK / RFU, ESF1 / Fold change vs veh, ESF1 / Fold change vs veh, TMEM50B / RFU, TAOK1 / Fold change vs veh, TAOK1 / RFU, ACBD3 / Fold change vs veh, ACBD3 / RFU, TMA16 / Fold change vs veh, TMA16 / RFU, RWDD3 / Fold change vs veh, RWDD3 / RFU, BCAT1 / Fold change vs veh, BCAT1 / RFU, EDEM3 / Fold change vs veh, EDEM3 / RFU, TMEM33 / Fold change vs veh, TMEM33 / RFU, WDR75 / Fold change vs veh, WDR75 / RFU, AHCTF1 / Fold change vs veh, AHCTF1 / RFU, TFRC / Fold change vs veh, TFRC / RFU, ZDHHC17 / Fold change vs veh, ZDHHC17 / RFU, NOM1 / Fold change vs veh, NOM1 / RFU, ARL8B / Fold change vs veh, ARL8B / RFU, ZBTB11 / Fold change vs veh, ZBTB11 / RFU, TAMM41 / Fold change vs veh, TAMM41 / RFU, KIAA1704 /// LOC100996395 / Fold change vs veh, KIAA1704 /// LOC100996395 / RFU, ING1 / Fold change vs veh, ING1 / RFU, TRMT61B / Fold change vs veh, TRMT61B / RFU, FUBP3 / Fold change vs veh, FUBP3 / RFU, TP53 / Fold change vs veh, TP53 / RFU, TNKS2 / Fold change vs veh, TNKS2 / RFU, ZFP14 / Fold change vs veh, ZFP14 / RFU, ACTR2 / Fold change vs veh, ACTR2 / RFU, PPP3R1 / Fold change vs veh, PPP3R1 / RFU, PIK3R1 / Fold change vs veh, PIK3R1 / RFU, HNRNPA1 / Fold change vs veh, HNRNPA1 / RFU, RNF170 / Fold change vs veh, RNF170 / RFU, ZNF28 / Fold change vs veh, ZNF28 / RFU, RNGTT / Fold change vs veh, RNGTT / RFU, OGT / Fold change vs veh, OGT / RFU, BRD1 / Fold change vs veh, BRD1 / RFU, MARS / Fold change vs veh, MARS / RFU, ZNF655 / Fold change vs veh, ZNF655 / RFU, FAHD1 / Fold change vs veh, FAHD1 / RFU, BDP1 / Fold change vs veh, BDP1 / RFU, LRRCC1 / Fold change vs veh, LRRCC1 / RFU, ARID1A / Fold change vs veh, ARID1A / RFU, ZNF146 / Fold change vs veh, ZNF146 / RFU, ZNF330 / Fold change vs veh, ZNF330 / RFU, GPN3 / Fold change vs veh, GPN3 / RFU, C9orf123 / Fold change vs veh, C9orf123 / RFU, N4BP2L2 / Fold change vs veh, N4BP2L2 / RFU, ARFIP1 / Fold change vs veh, ARFIP1 / RFU, FAM179B / Fold change vs veh, FAM179B / RFU, BCL10 / Fold change vs veh, BCL10 / RFU, UHRF1BP1L / Fold change vs veh, UHRF1BP1L / RFU, BET1 / Fold change vs veh, BET1 / RFU, CNOT2 / Fold change vs veh, CNOT2 / RFU, ZNF268 / Fold change vs veh, ZNF268 / Fold change vs veh, ZNF507 / RFU, DGCR2 / Fold change vs veh, DGCR2 / RFU, WDSUB1 / Fold change vs veh, WDSUB1 / Fold change vs veh, HSP90B1 /// MIR3652 / RFU, ADSS / Fold change vs veh, ADSS / RFU, GK / Fold change vs veh, GK / RFU, ZNF148 / Fold change vs veh, ZNF148 / RFU, TAF9 / Fold change vs veh, TAF9 / RFU, SLC1A5 / Fold change vs veh, SLC1A5 / RFU, SLMO2 / Fold change vs veh, SLMO2 / RFU, ABCC4 / Fold change vs veh, ABCC4 / RFU, LOC101060439 /// RAP1B / Fold change vs veh, LOC101060439 /// RAP1B / RFU, RFX7 / Fold change vs veh, RFX7 / RFU, GTPBP10 / Fold change vs veh, GTPBP10 / RFU, CNEP1R1 / Fold change vs veh, CNEP1R1 / RFU, BIVM-ERCC5 /// ERCC5 / Fold change vs veh, BIVM-ERCC5 /// ERCC5 / RFU, ILF3 / Fold change vs veh, ILF3 / RFU 11762660_at / Fold change /veh 11762660_at / RFU VCAN (11757783_s_at) / Fold change /veh VCAN (11757783_s_at) / RFU DDX43 (11728927_at) / Fold change /veh DDX43 (11728927_at) / RFU KRT8 (11758188_x_at) / Fold change /veh KRT8 (11758188_x_at) / RFU NKD1 (11759106_at) / Fold change /veh NKD1 (11759106_at) / RFU SRD5A1 (11742802_a_at) / Fold change /veh SRD5A1 (11742802_a_at) / RFU TPSAB1 /// TPSB2 (11721975_s_at) / Fold change /veh TPSAB1 /// TPSB2 (11721975_s_at) / RFU GSTM3 (11746129_a_at) / Fold change /veh GSTM3 (11746129_a_at) / RFU IL23R (11737362_x_at) / Fold change /veh IL23R (11737362_x_at) / RFU TMEM51 (11727254_a_at) / Fold change /veh TMEM51 (11727254_a_at) / RFU PIWIL2 (11732686_x_at) / Fold change /veh PIWIL2 (11732686_x_at) / RFU ORM1 (11744905_x_at) / Fold change /veh ORM1 (11744905_x_at) / RFU CCDC152 (11743942_at) / Fold change /veh CCDC152 (11743942_at) / RFU ECM1 (11717891_a_at) / Fold change /veh ECM1 (11717891_a_at) / RFU IL23R (11748794_a_at) / Fold change /veh IL23R (11748794_a_at) / RFU TNFAIP8L3 (11732012_x_at) / Fold change /veh TNFAIP8L3 (11732012_x_at) / RFU MBOAT4 (11741988_at) / Fold change /veh MBOAT4 (11741988_at) / RFU 11764193_at / Fold change /veh 11764193_at / RFU TMEM53 (11763286_at) / Fold change /veh TMEM53 (11763286_at) / RFU MAGEB2 (11727129_at) / Fold change /veh MAGEB2 (11727129_at) / RFU TMEM200A (11744735_a_at) / Fold change /veh TMEM200A (11744735_a_at) / RFU CCDC152 (11751479_a_at) / Fold change /veh CCDC152 (11751479_a_at) / RFU FAM211A (11726209_a_at) / Fold change /veh FAM211A (11726209_a_at) / RFU RGS16 (11746705_a_at) / Fold change /veh RGS16 (11746705_a_at) / RFU VCAN (11755009_s_at) / Fold change /veh VCAN (11755009_s_at) / RFU RHOB (11743442_s_at) / Fold change /veh RHOB (11743442_s_at) / RFU RGS16 (11720943_a_at) / Fold change /veh RGS16 (11720943_a_at) / RFU RGS16 (11720944_at) / Fold change /veh RGS16 (11720944_at) / RFU, VPS4B / Fold change vs veh, VPS4B / RFU, CREB1 / Fold change vs veh, CREB1 / RFU, DNAJC13 / Fold change vs veh, DNAJC13 / RFU, GNAQ / Fold change vs veh, GNAQ / RFU, CDK5R1 / Fold change vs veh, CDK5R1 / RFU, ZRANB3 / Fold change vs veh, ZRANB3 / RFU, CUL4A / Fold change vs veh, CUL4A / RFU, CCNY / Fold change vs veh, CCNY / RFU, UFL1 / Fold change vs veh, UFL1 / RFU, COG3 / Fold change vs veh, COG3 / RFU, DIAPH2 / Fold change vs veh, DIAPH2 / RFU, SKA2 / Fold change vs veh, SKA2 / RFU, AFF3 / Fold change vs veh, AFF3 / RFU, LMF1 / Fold change vs veh, LMF1 / RFU, IPO11 / Fold change vs veh, IPO11 / RFU, DFFB / Fold change vs veh, DFFB / RFU, FOXP1 / Fold change vs veh, FOXP1 / RFU, CARD8 / Fold change vs veh, CARD8 / RFU, STRN3 / Fold change vs veh, STRN3 / RFU, ADK / Fold change vs veh, ADK / RFU, RASSF2 / Fold change vs veh, RASSF2 / RFU, WIPF1 / Fold change vs veh, WIPF1 / RFU, LARP1B / Fold change vs veh, LARP1B / RFU, RASA1 / Fold change vs veh, RASA1 / RFU, RB1 / Fold change vs veh, RB1 / RFU, PPFIA1 / Fold change vs veh, PPFIA1 / RFU, MAT2A / Fold change vs veh, MAT2A / RFU, CCT5 / Fold change vs veh, CCT5 / RFU, WDR92 / Fold change vs veh, WDR92 / RFU, CUX1 / Fold change vs veh, CUX1 / RFU, TTC7A / Fold change vs veh, TTC7A / RFU, TMEM135 / Fold change vs veh, TMEM135 / RFU, DEPTOR / Fold change vs veh, DEPTOR / RFU, CPM / Fold change vs veh, CPM / RFU, DNAJB6 / Fold change vs veh, DNAJB6 / RFU, CACNA2D3 / Fold change vs veh, CACNA2D3 / RFU, DTX4 / Fold change vs veh, DTX4 / RFU, TFCP2 / Fold change vs veh, TFCP2 / RFU, GMCL1 /// GMCL1P1 / Fold change vs veh, GMCL1 /// GMCL1P1 / RFU, AEBP2 / Fold change vs veh, AEBP2 / RFU, SNHG1 /// SNORD22 /// SNORD25 /// SNORD26 /// SNORD27 /// SNORD28 /// SNORD29 /// SNORD31 / Fold change vs veh, SNHG1 /// SNORD22 /// SNORD25 /// SNORD26 /// SNORD27 /// SNORD28 /// SNORD29 /// SNORD31 / Fold change (Aza/veh), C12orf56 (ProbeSet 11735607_a_at) / Fold change (ACY-1035/veh), C12orf56 (ProbeSet 11735607_a_at) / Fold change (Aza/veh), FGFR1OP (ProbeSet 11751329_s_at) / Fold change (ACY-1035/veh), FGFR1OP (ProbeSet 11751329_s_at) / Fold change (Aza/veh), VPS36 (ProbeSet 11739960_a_at) / Fold change (ACY-1035/veh), VPS36 (ProbeSet 11739960_a_at) / RFU SYPL1 (11715823_x_at) / Fold change /veh SYPL1 (11715823_x_at) / RFU IGFBP7 (11715501_s_at) / Fold change /veh IGFBP7 (11715501_s_at) / RFU REEP3 (11722064_at) / Fold change /veh REEP3 (11722064_at) / RFU IGLL1 (11728026_x_at) / Fold change /veh IGLL1 (11728026_x_at): dose or concentration left out as unconfirmed
Details: ProbeSet 11756954_s_at; LIST B

Nc1ccc(-c2cccs2)cc1NC(=O)c1ccc2c(c1)cc(C1CC1)n2CCN1CCOCC1 [ACY-1035]
RFU, ZEB2: 1361.36 RFU
